The source of these data is article PMC9895975 (Scientific Reports, 2023).

One series has as its system CTSL-dependent viruses. Particulars: cited from earlier work.
For series [1] the following is noted: without a lipid chain; cited from earlier work.
Series [2] is described as follows: Conformational analysis from intrinsic viscosity (ELLIPS1, Einstein-Simha shape factor). Particulars: for axial ratio (a/b) oblate / axial ratio (a/b) prolate: ELLIPS1; for viscosity shape function ν: [η] = 3.2 mL/g; for swelling ratio vs/υ¯ through dynamic hydration: maximum value, corresponds to a/b = 1 (sphere), confirmed by SingleHYDFIT. Type of series: physicochemical. An excerpt: In order to interpret this in terms of a molecular shape account needs to be taken of the contribution of the swollen specific volume of the assembly in solution vs (which will be swollen due to a time-averaged association with the surrounding solvent through dynamic hydrogen bonding and other associative processes)[43]:6 [η]=ν.vs
Equation (6) ν is the Einstein-Simha shape factor. vs is likely to be higher for the glycopeptide than for proteins due to the relatively large proportion of carbohydrate which tends to have a greater affinity for solvent. In Table 1 values of the shape factor ν , and their corresponding ellipsoid of revolution axial ratios a/b were calculated based on either a prolate or oblate model, using the routine ELLIPS1 (Harding et al. 1997) for 3 cases of vs/ υ¯ , including the (unlikely) case of no swelling vs/ υ¯ = 1. The maximum value for vs/ υ¯ ~ 2, which corresponds to the minimum value of a/b = 1 (i.e. a sphere, Fig. 6), and this seems the most likely scenario.

A short description of series [3]: Intrinsic viscosity, capillary (rolling ball) viscometry. The format is physicochemical. Particulars: 10.2 mg/mL; 25.0 °C; rolling ball viscometer AMVn; Solomon-Ciuta relation; phosphate-chloride buffer pH 6.8, I = 0.10 M. On the procedure: Teicoplanin solutions were analysed using the capillary viscometer AMVn (Anton-Paar, Graz, Austria). This measurement was conducted at a temperature of 25.0 °C based on the rolling ball viscosity method. With a 1.4 mm steel ball moving in a 1.6 mm diameter glass capillary, the flow times (averaged over repeat measurements) of the solvent and solution were then determined. The relative viscosity was calculated from the equation:4 ηrel=ρ·t/ρ0·t0=ηsp+1 where ηsp is the specific viscosity. Then the intrinsic viscosity η was estimated from the Solomon-Ciuta relation[52] at a concentration of 10.2 mg/ml, which gave a sufficient flow time increment between solvent and solution:5 η≈1/c·2ηsp-2lnηrel^1/2

Series [4] is described as follows: Sedimentation velocity in the analytical ultracentrifuge (SV-AUC). Type of series: physicochemical. Particulars: for concentration above which the sedimentation coefficient distribution is unimodal (assembled form): SEDFIT. On the procedure:
(§1) Teicoplanin samples were prepared in a phosphate-chloride buffered saline solution (PBS, or “Paley buffer”) at pH ~ 6.8 and, by adding NaCl, adjusted to an ionic strength of I = 0.1 mol/L[38].
Experiments to determine sedimentation coefficients and sedimentation coefficient distributions were performed at a temperature of 20.0 °C (at which standardised values are easily calculated) using an Optimal XL-I analytical ultracentrifuge (Beckman Instruments, Palo Alto, CA, USA) with Rayleigh interference optics. Teicoplanin samples (400 μL ) and reference solvent (PBS, 420 μL ) were injected into channels of the 12 mm double sector epoxy cells with sapphire windows. These cells were then centrifuged at 47,500 rpm for a run time of ~ 24 h and the data obtained were analysed in SEDFIT using the least squares, ls-g*(s) processing method. This generates the sedimentation coefficient distribution, g(s) versus sT,b , where sT,b is the sedimentation coefficient, at temperature T in buffer b. The s value in Svedberg units, S = 10^-13 seconds, was then normalised to standard conditions (density ρ20,w and viscosity η20,w of water at 20.0 °C) to give s20,w from the Eq. [43]:2 s20,w=1-υ¯·ρ20,w/1-υ¯·ρT,b·ηT,b/η20,w·sT,b where ρT,b and ηT,b are the density and the viscosity of buffer b at temperature T, respectively.

Series [5] can be described thus: Sedimentation equilibrium in the analytical ultracentrifuge (SE-AUC, SEDFIT-MSTAR). Type of series: physicochemical. Particulars: M* method, 0-10 mg/mL, corresponds to the unimer.
The nature of series [6]: Global hydrodynamic fit SingleHYDFIT (E2 protocol). Type of series: physicochemical. Particulars: assumed molar mass of 18-mer (33835 Da) and of 19-mer (35714 Da), same result for both. An excerpt:
To check this, we use a global fitting approach known as SingleHYDFIT[54] which combines intrinsic viscosity data with sedimentation coefficient and dynamic light scattering (hydrodynamic radius) data together, along with the molecular weight and partial specific volume. It involves the minimization of a global fitting function (Fig. 7). The E2 protocol (ratio of ellipsoid) was chosen and run twice: once with an assumed molar mass equivalent of an 18-mer (33835 Da) and once again with an assumed molar mass of 19-mer (35714 Da). Delta (Δ) was plotted against axial ratio, where values < 1 mean oblate and > 1 mean prolate (Fig. 7).

The nature of series [7]: Hydrodynamic radius by dynamic light scattering (DLS). Particulars: 12.5 mg/mL; 20.0 °C; scattering angle 173°; Zetasizer Nano-S; averaged over several measurements. Type of series: physicochemical. On the procedure:
Dynamic or quasi-elastic light scattering (DLS or QLS) measurements were made on the fixed scattering angle Zetasizer Nano-S system (Malvern instruments Ltd., Malvern UK) equipped with a 4mW He–Ne laser at a wavelength of 632.8nm[46],[47]. Samples in solution were measured in a quartz cuvette at 20.0 °C. A scattering angle of 173° was used, and collected in manual mode, requiring a measurement duration of 90 s, averaged over several measurements. The resulting data were analysed using the “Zetasizer Software (Version 7.1)” (Malvern Instruments Ltd., Malvern, UK), providing a volume distribution of translational diffusion coefficients based on a form of the CONTIN program. The viscosity of the buffer used was calculated using a solvent builder interface and takes the effects of buffer salts into account. The z-average hydrodynamic radii rz (nm), were evaluated from the z-average translational diffusion coefficients Dz by the Stokes–Einstein Eq. [47]:3 rz=kBT/{6πηoDz} where kB is the Boltzmann constant, T is the absolute temperature and η is the viscosity of the medium. […] (ii) the teicoplanin in its monomeric and multi-meric form were quasi-spheroidal and not asymmetric so there was no angular dependence of the measured Dz, values on anisotropic rotational diffusion effects—i.e. an extrapolation to zero angles was not necessary.

The next series relates to SARS-CoV virus. Particulars: cited from earlier work.
Series [8] is described as follows: Sedimentation equilibrium in the analytical ultracentrifuge (SE-AUC, SEDFIT-MSTAR). The format is physicochemical. Particulars: for concentration from which the self-association (Mw,app) plateaus: range 0-10 mg/mL, hinge point and M* methods. On the procedure:
as §1
Sedimentation equilibrium experiments were used to obtain equilibrium concentration distribution profiles for absolute molecular weight measurement. An Optima XL-I analytical ultracentrifuge was also employed but at a lower temperature of 7 °C because of the longer duration of a sedimentation equilibrium experiment compared to sedimenation veloicity. To characterise the self-association/aggregation of teicoplanin, 12 mm double sector epoxy cells were loaded with the same volumes (100 μL ) of both solution and solvent and run at 45,000 rpm for a run time of ~ 48 h. Records of concentration distributions of teicoplanin at equilibrium were subsequently analysed using the model-independent SEDFIT-MSTAR algorithm. Since the non-ideality of teicoplanin is negligible we estimated that apparent weight average molar masses Mw,app were approximately equal to the true weight average molar masses Mw. The multiple concentrations used effectively represent repeats for the sedimentation equilibrium (and sedimentation velocity) experiments.
To determine the weight-average molar masses Mw of teicoplanin, the M* extrapolation method[45] and hinge point analysis, both incorporated in the sedimentation equilibrium-based SEDFIT–MSTAR software[44] were used. […] Rayleigh interference optics provides an accurate record of a sedimentation equilibrium concentration profile c(r) vs r, which means that the local concentration c(r) at the radial position r (cm) is from the rotation centre. M*(r) is a useful operational point average molar mass parameter. M*(r → rb) = Mw is the weight average molar mass over the whole macromolecular distribution, where r is the radial position at the cell base. This method is particularly advantageous for polydisperse/ or self-associating systems. As an additional check, the “hinge point method” (the value of the point weight average molar mass, Mw(r) at the “hinge point” in the sedimentation equilibrium distribution, i.e. the radial position in the cell where the local concentration c(r) = the original loading concentration) provides another estimate for the whole distribution molar mass Mw[44].

A short description of series [9]: Partial specific volume from solution/solvent densities (digital density meter). Type of series: physicochemical. Particulars: c = 10.2 mg/mL; Anton-Paar digital density meter; PBS. The method, then: The partial specific volume υ¯ from solution/ solvent densities was determined using an Anton-Paar (Graz, Austria) digital density meter, and application of:1 υ¯=1/ρ0·1-ρ-ρ0/c at a concentration, c, of 10.2 mg/mL, and where ρ and ρ0 are the densities of the solution and solvent, respectively.

For series [10] the following is noted: below that value a gel might be formed in solution; cited from earlier work. The method, then: Although it is important to explore how teicoplanin binds to the Lipid II moiety regardless of its phenotypes, the knowledge of the biological form of teicoplanin in an aqueous solution is of importance. Teicoplanin and its aglycon derivatives[25] use their long […] chain to attach themselves to the targeted sites. It is known that the minimum volume of solvent required to dissolve 400 mg of teicoplanin is 3 ml because, below that value, a gel might be formed in solution[10]. Teicoplanin derivatives have also been reported to create nano-sized aggregates in aqueous solution[26]. This gelati ...

The mark [11] stands for this setting: assumed vs/υ¯ = 1 (no swelling).
[12] abbreviates: phosphate-chloride buffer pH 6.8, I = 0.10 M, 7 °C, SEDFIT-MSTAR.

Consider vancomycin, for which the “antiviral activity against CTSL-dependent viruses” value in the series on CTSL-dependent viruses is recorded as “cannot express antiviral activity”.
Consider teicoplanin aglycon, for which, in [1], the self-association in solution entry is recorded as “dimerise weakly”.
For teicoplanin A2, the “swollen specific volume vs” value stood at 0.64 mL/g in series [2] (setting [11]), 0.96 mL/g in series [2] (assumed vs/υ¯ = 1.5) and 1.28 mL/g in series [2] (assumed vs/υ¯ = 2). In addition, the figures for the “axial ratio (a/b) oblate” value in series [2] (setting [11]), in series [2] (assumed vs/υ¯ = 1.5) and in [2] (assumed vs/υ¯ = 2) were 5.4, 2.8 and 1, respectively. The “axial ratio (a/b) prolate” value is on record as 4.3 in series [2] (setting [11]), 2.5 in series [2] (assumed vs/υ¯ = 1.5) and 1 in [2] (assumed vs/υ¯ = 2). The entries for the “viscosity shape function ν” value in [2] (setting [11]), in series [2] (assumed vs/υ¯ = 1.5) and in series [2] (assumed vs/υ¯ = 2) were 5.0, 3.3 and 2.5, respectively. Further, the “swelling ratio vs/υ¯ through dynamic hydration” value in series [2] is recorded as ~ 2; in series [2] (listed as teicoplanin), 2. The “intrinsic viscosity [η]” value in [3] amounted to 3.2 ± 0.1 mL/g. Also, the “s-value (not normalised) of teicoplanin dissolved in 6 M GuHCl” value in [4] (6 M GuHCl, SV-AUC) is ~ 0.7 S. The “s20,w of teicoplanin dissolved in 6 M GuHCl” value in series [4] (6 M GuHCl, SV-AUC, normalised to water at 20.0 °C) is 1.17 ± 0.01 S. Besides, the “sedimentation coefficient s20,w of the self-associated assembly (upper extrapolated value)” value in series [4] (phosphate-chloride buffer pH 6.8, I = 0.10 M, 20.0 °C, 47,500 rpm, ~24 h, Rayleigh interference optics, SEDFIT ls-g*(s), s vs c plot, 0-5 mg/mL) is on record as ~ 4.65 S. Further, the “concentration above which the sedimentation coefficient distribution is unimodal (assembled form)” value was > 500 µg/mL in [4] (phosphate-chloride buffer pH 6.8, I = 0.10 M, 20.0 °C) and > 500 µg/mL in series [4] (phosphate-chloride buffer pH 6.8, I = 0.10 M, 20.0 °C, listed as teicoplanin). Moreover, the “sedimentation coefficient, lower extrapolated value (predicted value for a spheroidal unimer)” value in [4] (phosphate-chloride buffer pH 6.8, I = 0.10 M, 20.0 °C, s vs c plot extrapolated to low concentration) is ~ 0.7 S. The “concentration below which the assembly dissociates (separation, bimodality)” value in [4] (phosphate-chloride buffer pH 6.8, I = 0.10 mol/L, 20.0 °C) is < 500 µg/mL. The “weight-average molar mass Mw in 6 M GuHCl” value in [5] was 1.75 ± 0.35 kDa. In addition, the “axial ratio of the assembly from SingleHYDFIT” value in [6] is on record as 1.0 ± 0.0. Further, the “z-average hydrodynamic radius rz” value in series [7] was ~ 3.2 nm. In addition, the “effect on cell entry of the SARS-CoV virus” value in the series on SARS-CoV virus is “inhibited cell entry”. Moreover, the “number of monomers in the assembly (mers), M* method” value in series [8] (from plateau Mw 33,000 g/mol, buffer pH 6.8, I = 0.10 M) is on record as ~ 18 mers. In addition, in [8] (from plateau Mw 35,400 g/mol, buffer pH 6.8, I = 0.10 M), the “number of monomers in the assembly (mers), hinge point method” value was ~19 ± 1 mers. Further, the “plateau weight average molar mass Mw,app, M* method” value in [8] (phosphate-chloride buffer pH 6.8, I = 0.10 M, 7 °C, 45,000 rpm, ~48 h, SEDFIT-MSTAR, c from 1 mg/mL) was 33,000 ± 1000 g/mol. For the same substance, the “plateau weight average molar mass Mw,app, hinge point method” value in series [8] (phosphate-chloride buffer pH 6.8, I = 0.10 M, 7 °C, 45,000 rpm, ~48 h, SEDFIT-MSTAR, c from 1 mg/mL up to 10 mg/mL) was 35,400 ± 1000 g/mol. In addition, the “apparent weight average molar mass Mw extrapolated to zero concentration (M* method)” value in series [8] (setting [12]) is given as 1.9 ± 0.1 kDa. The “weight average molar mass extrapolated to zero concentration, hinge point method Mw(rhinge)” value in series [8] (setting [12]) is 2.7 ± 0.1 kDa. Further, the “concentration from which the self-association (Mw,app) plateaus” value was > 1000 µg/mL in series [8] (phosphate-chloride buffer pH 6.8, I = 0.10 M) and 1000 µg/mL in series [8] (phosphate-chloride buffer pH 6.8, I = 0.10 M, listed as teicoplanin). For the same substance, in series [8] (phosphate-chloride buffer pH 6.8, I = 0.10 mol/L, AUC and viscometry combined), the “size of the self-associated assembly (n-mer), overall” value is 18–19 mer. Also, the “partial specific volume υ¯” value in [9] is given as 0.64 ± 0.01 mL/g. Besides, the “minimum volume of solvent required to dissolve 400 mg” value in series [10] was 3 mL.
